Measured values published in US5498627A, “Octahydro-2-naphthalenecarboxylic acid derivative, its production and use” (Takeda Chemical Industries, Ltd., priority 1994, dated 1996).
Converted amounts (≈) assume the structure as drawn.

Experiments:
[1] = system: human fibrosarcoma strain HT-1080; assay: In vivo tumor growth inhibitory test; details: 50 mg/kg subcutaneously daily for 4 days beginning 10 days after transplantation; tumor size 18 days after transplantation; HT-1080 in nude mice
Protocol: Cells of human fibrosarcoma strain HT-1080 (2×10^6 cells per mouse) were subcutaneously transplanted to nude mice. Three mice were used for each treated group. The compound TAN-1813 (50 mg/kg) was subcutaneously administered to the mice daily for 4 days beginning 10 days after the transplantation. Anti-tumor activity was evaluated by measuring tumor size 18 days after the transplantation of the cancer cells. Average tumor sizes of 3 mice in the untreated (C) and the compound TAN-1813-treated (T) group were measured, to determine the tumor growth inhibitory activity. The tumor size (mm^3) was calculated from the formula: 0.5×a×b^2 by measuring the major axis (mm) (a) and minor axis (mm) (b) with a calibrater.

NIH3T3/K-ras cells = assay: Cell growth-inhibitory test (MTT); assay type: cell-based; details: Mus musculus, NIH3T3, 72 h, 3 days incubation, read-out: concentration inhibiting the growth of NIH3T3/K-ras cells by 50%
Protocol: The cell growth-inhibitory activity of the compound TAN-1813 was determined according to a modified method of Mosmann (Journal of Immunological Methods 65, 55 (1983) ) by using a K-ras transformant (NIH3T3/K-ras) of mouse embryonic fibroblast strain NIH3T3. That is, NIH3T3/K-ras cells were suspended in a medium at a cell density of 3×10^4 /ml. The suspension (0.1 ml per well) was dispensed into each well of a 96-well flat-bottomed plate (manufactured by Nunc) containing a solution (10 μl) of varying concentrations of the compound TAN-1813 dissolved in phosphate-buffered saline (PBS). The medium was Dulbecco modified Eagle's minimum essential medium (Whittaker Bioproducts, U.S.A.) containing 10 V/V % fetal calf serum (FCS, Whittaker Bioproducts, U.S.A.). The above plate was incubated for 3 days at 37° C. and 5% CO2. Then, 25 μl of tetrazolium salt MTT (Sigma, U.S.A.) solution (5 mg/ml) dissolved in PBS was added to each well. After incubation for 4 hours, 0.1 ml of 10% SDS solution dissolved in 0.01N hydrochloric acid was added to each well, and the plate was incubated overnight at 37° C. and 5% CO2. Absorbance at 620 nm was measured using Titertek Multiscan Spectrophotometer (Flow, U.S.A.). The growth inhibitory activity (%) was calculated from the absorbance values in the presence and absence of the compound TAN-1813.

Solubility = assay type: physicochemical
Farnesyltransferase = target: T1, Farnesyltransferase (Rattus norvegicus, UniProt Q02293+Q04631); assay: Farnesyltransferase-inhibitory test (FT Assay Kit, SPA); assay type: biochemical; details: crude enzyme from rat brains; biotin-modified human lamin B C-terminal peptide, 3H-farnesylpyrophosphate; 37° C., 1 hour; read-out: concentration inhibiting farnesyltransferase activity by 50% (converted)
T1 construct: Farnesyltransferase was prepared from rat brains; from tissue; host or cells: brain of male SD rats, 6 weeks old (Charles River); dialysed 30-50% ammonium sulfate fraction, crude enzyme solution
Protocol: Farnesyltransferase was prepared from rat brains according to the method of Y. Reiss et al. (Cell 62, 81 (1990)) and all of the following procedures were performed at 4° C. That is, brains were removed from SD rats (male, 6 weeks old, Charles River) and sliced with a pair of scissors. Then 50 mM tris-hydrochloric acid buffer (pH 7.5)(2 ml per brain) containing 1 mM EDTA, 1 mM EGTA, 0.2 mM phenylmethylsulfonyl fluoride and 0.1 mM leupeptin was added. The mixture was homogenized with a Teflon homogenizer (manufactured by Hamada Rika, Japan) in ice. The extract was centrifuged at 60,000×g for 70 minutes. From the resulting supernatant, the precipitate fraction from 30 to 50 W/V % concentration of ammonium sulfate was recovered, and dialyzed overnight against 20 mM tris-hydrochloric acid buffer (pH 7.5) containing 1 mM dithiothreitol and 20 μM zinc chloride. The dialysed solution was centrifuged at 15,000×g for 10 minutes. […]
Farnesyltransferase activity was determined using FT Assay Kit (manufactured by Amersham) as follows. […] The radioactivity produced by attachment of the ^3 H-farnesylated peptide to the SPA beads was measured with a scintillation counter to determine the amount of the ^3 H-farnesylated peptide. The farnesyltransferase-inhibitory activity of the compound TAN-1813 was calculated from the counts in the presence and absence of the compound TAN-1813.

In the case of `C=CC(CCCCC)C1=C(C(=O)C2C(C)C=CC3(O)CC(C(=O)O)CC(C)C23)C(=O)NC1=O` (centres unmarked) [TAN-1813, 5-[2,5-dihydro-4-(1-octen-3-yl)-2,5-dioxo-1H-pyrrole-3-carbonyl]-8a-hydroxy-4,6-dimethyl-1,2,3,4,4a,5,6,8a-octahydro-2-naphthalenecarboxylic acid], the “tumor size ratio (T/C×100)” value [1] is reported as 46%, the IC50 (NIH3T3/K-ras cells) is reported as 0.4 µg/mL (≈ 0.874 µM) and the Solubility (Solubility; in methanol, ethyl acetate, chloroform, and dimethyl sulfoxide) is reported as “Readily soluble”. The Solubility (Solubility; in water, and hexane) was “Slightly soluble” and the IC50 (Farnesyltransferase) was 26.2 µM.
